Data published in patent US20240270801A1, “EPITOPE PEPTIDE OF HUMAN ALPHA-SYNUCLEIN AND PHARMACEUTICAL COMPOSITION INCLUDING SAID PEPTIDE” (Sumitomo Pharma Co., Ltd., priority 2021, published 2024).
Non-standard residues stand in square brackets, D forms with d. No end group written: not given here. Ahx = NCCCCCC(=O)O

What was measured:
aggregated human αSyn [1] = assay: Antibody-inducing ability in mice: ELISA antibody titer of immune serum with respect to aggregated human αSyn; format: in vivo, mouse; settings: for Antibody titer with respect to aggregated human αSyn (N = 4 − 6, mean ± standard deviation): Example 2, serum 2 weeks after second administration; for Antibody titer with respect to aggregated human αSyn, relative to control: mice
Procedure: (§1) Using the various AJ peptide-human αSyn peptide conjugates produced in Example 1, an antibody-inducing ability with respect to human αSyn in mice was evaluated. The various AJ-human αSyn peptide conjugates (250 μg/mouse) or KLH-DMPVDPDN (25 μg/mouse) in physiological saline were intramuscularly administered to balb/c mice (females, 6 weeks old, CLEA Japan, Inc.) twice at a 2-week interval for immunization using aluminum hydroxide (Alum) (InvivoGen, 50 μg/mouse) as an adjuvant. As a negative control, physiological saline (100 μL/mouse) comprising the same amount of aluminum hydroxide was administered twice. Two weeks after the second administration, serum was recovered to evaluate the antibody titer with respect to human αSyn by ELISA.
(§2) ELISA was performed by the following method. 96-well plates were coated with human αSyn (Sigma) at 0.2 μg/well. After washing with PBST (Phosphate Buffered Saline comprising 0.05% Tween) once, blocking was performed with 3% skim milk (FUJIFILM Wako Pure Chemical Corporation). After washing with PBST three times, diluted serum was added to cause a reaction at room temperature for 1 hour. Furthermore, after washing with PBST three times, Goat anti-mouse IgG-HRP (abcam) was added to cause a reaction at room temperature for 1 hour. After washing with PBST three times, SureBlue TMB Microwell Peroxidase Substrate (KPL) was added to cause a reaction at room temperature for 10 minutes while light shielding. An equal volume of a TMB Stop Solution (KPL) was added to stop the reaction, and the absorbance at 450 nm was measured. ELISA with respect to aggregated human αSyn was performed by coating with the aggregated human αSyn (Stress Marq) at 15 ng/well instead of human αSyn in the above-mentioned method.
The antibody-inducing ability of the AJ-human αSyn peptide conjugates (AJ-p54, AJ-p54-KLH, and AJ-DMPVDPDN) produced in Example 1 with respect to human αSyn and aggregated human αSyn in mice was evaluated. Physiological saline or the AJ-human αSyn peptide conjugate (250 μg/mouse) was intramuscularly administered to balb/c mice (females, 6 weeks old, CLEA Japan, Inc.) twice at a 2-week interval using Alum (InvivoGen, 50 μg/mouse) as an adjuvant. Furthermore, KLH-DMPVDPDN (25 μg/mouse) was administered using Alum (InvivoGen, 50 μg/mouse) as an adjuvant. Two weeks after the second administration, serum was recovered to evaluate the antibody titer by ELISA. ELISA was performed by the method described in Example 2.
The antibody-inducing ability of the produced various human αSyn peptide conjugates with respect to human αSyn and aggregated human αSyn in the mice was evaluated by the method described in Example 2 using the antibody titers with respect to human αSyn and aggregated human αSyn of the mouse immune serum. […] In Table 6, the antibody titer of AJ-p242, AJ-p244, AJ-p347, or AJ-p361 is shown with the antibody titer of AJ-p150 as a control being 1 (logarithm). In addition, the antibody titers of AJ-p229, AJ-p237, and AJ-p298 are shown with the antibody titer of AJ-p54 as a control being 1 (logarithm).
The antibody-inducing ability of the AJ-human αSyn peptide conjugates with a modified linker with respect to human αSyn and aggregated human αSyn in the mice was evaluated using the antibody titers with respect to human αSyn and aggregated human αSyn of the mouse immune serum. […] In Table 8, the antibody titers of the AJ-human αSyn peptide conjugates with various modified linkers comprising p54 are shown with the antibody titer of AJ-p54 as a control being 1 (logarithm). In addition, the antibody titers of the AJ-human αSyn peptide conjugates with various modified linkers comprising p150 are shown with the antibody titer of AJ-p150 as a control being 1 (logarithm).

aggregated human αSyn [2] = molecular target: aggregated human αSyn (Homo sapiens, UniProt P37840); assay: Aggregated human αSyn-neutralizing effect of antibody induced in mice: phosphorylation of human αSyn in SH-SY5Y cells; format: cell-based; set-up: purchased Stress Marq (StressMarq Biosciences Inc.); settings: antibody (100 μg/mL) induced in C57BL/6 mice by the vaccine; FIG. 1B, isotype control = 100
Procedure: The aggregated human αSyn-neutralizing effect of the antibody induced in the mice by the AJ-human αSyn peptide conjugate (AJ-p54) produced in Example 1 was evaluated. Physiological saline or the AJ-human αSyn peptide conjugate (250 μg/mouse) was intramuscularly administered to C57BL/6 mice (males, 6 weeks old, CLEA Japan, Inc.) four times at a 2-week interval using CFA (DIFCO) as an adjuvant. Furthermore, KLH-DMPVDPDN (25 μg/mouse) was administered using Alum (InvivoGen, 50 μg/mouse) as an adjuvant. Two weeks after the fourth administration, serum was recovered. After recovering the antibodies comprised in the serum by Protein G HP SpinTrap (Cytiva), the human αSyn- and aggregated human αSyn-neutralizing effect was evaluated by a method described below.
As the human αSyn- and aggregated human αSyn-neutralizing effect, the influence on phosphorylation of human αSyn in SH-SY5Y cells (ATCC) was evaluated. The SH-SY5Y cells were seeded in a 96-well plate at 2×10^4 cells/well and cultured under the conditions of 37° C. and 5% CO2. […] After fixing the cells with a 4% paraformaldehyde/phosphate buffer solution (FUJIFILM Wako Pure Chemical Corporation), phosphorylated human αSyn was stained with a fluorescence-labeled anti-phosphorylated αSyn antibody (Cell Signaling). The amount of phosphorylated human αSyn was evaluated by image analysis using ArrayScan (Thermo Fisher Scientific Inc.). […]

human αSyn = assay: Antibody-inducing ability in mice: ELISA antibody titer of immune serum with respect to human αSyn; format: in vivo, mouse; set-up: key to Antibody titer with respect to human αSyn, relative to control: log titer relative to control conjugate (control = 1); settings: for Antibody titer with respect to human αSyn (N = 4 − 6, mean ± standard deviation): Example 2, serum 2 weeks after second administration
Procedure: as §1
as §2, with “above-mentioned method. […]” for “above-mentioned method.”
The antibody-inducing ability of the produced various human αSyn peptide conjugates with respect to human αSyn and aggregated human αSyn in the mice was evaluated by the method described in Example 2 using the antibody titers with respect to human αSyn and aggregated human αSyn of the mouse immune serum. […] In Table 6, the antibody titer of AJ-p242, AJ-p244, AJ-p347, or AJ-p361 is shown with the antibody titer of AJ-p150 as a control being 1 (logarithm). In addition, the antibody titers of AJ-p229, AJ-p237, and AJ-p298 are shown with the antibody titer of AJ-p54 as a control being 1 (logarithm). […]

aggregated human αSyn [3] = assay: Antibody-inducing ability in cynomolgus monkeys: ELISA antibody titer with respect to aggregated human αSyn; format: in vivo; settings: i.m. three times at 2-week interval, Alum; AJ conjugates 2,000 μg/monkey, KLH-DMPVDPDN 75 μg/monkey; FIG. 4B
Procedure: The antibody-inducing ability of the AJ-human αSyn peptide conjugate with respect to human αSyn and aggregated human αSyn in cynomolgus monkeys was evaluated. The AJ-human αSyn peptide conjugates (AJ-p54, AJ-p150, AJ-p283, AJ-p142, and AJ-p273) (2,000 μg/monkey) and KLH-DMPVDPDN (75 μg/monkey) were intramuscularly administered to cynomolgus monkeys (males, 3 to 7 years old, SNBL, Ltd.) three times at a 2-week interval using Alum (InvivoGen, 200 μg/monkey) as an adjuvant. Blood was collected before administration and 4, 6, 8, and 10 weeks after the first administration to recover the serum. ELISA was performed by the following method.
96-well plates were coated with human αSyn (Sigma-Aldrich) or aggregated human αSyn (StressMarq Biosciences Inc.) at 0.2 μg/well or 15 ng/well. After washing with PBST once, blocking was performed with 3% skim milk (FUJIFILM Wako Pure Chemical Corporation). After washing with PBST three times, diluted serum was added to cause a reaction at room temperature for 1 hour. Furthermore, after washing with PBST three times, Goat anti-Monkey IgG-HRP (Bio-Rad Laboratories, Inc.) was added to cause a reaction at room temperature for 1 hour. […] An equal volume of a TMB Stop Solution (KPL) was added to stop the reaction, and the absorbance at 450 nm was measured.

[4] = balb/c mice, i.m. twice at 2-week interval, Alum, AJ conjugates 250 μg/mouse, KLH-DMPVDPDN 25 μg/mouse
[5] = Example 4, balb/c mice, i.m. twice at 2-week interval, Alum, AJ conjugates 250 μg/mouse, KLH-DMPVDPDN 25 μg/mouse

Sequence: ELKLIFLHRLKRLRKRLKRKXKKDQLGKNE (ELKLIFLHRLKRLRKRLKRK[Ahx]KKDQLGKNE) [AJ-p54, AJ peptide linked to p54 via ε-Acp (X)]
- Antibody titer with respect to aggregated human αSyn (N = 4 − 6, mean ± standard deviation) (aggregated human αSyn [1]; [4]): 768 ± 862
- Induction of the antibody to aggregated human αSyn (in words) (aggregated human αSyn [1]; Example 4, balb/c mice): induced
- Antibody titer with respect to aggregated human αSyn (mean ± standard deviation) (aggregated human αSyn [1]; [5]): 768 ± 296
- Antibody titer with respect to aggregated human αSyn, relative to control (aggregated human αSyn [1]; Example 9, N = 4, titer of AJ-p150 or AJ-p54 as control being 1 (logarithm)): 1
- Antibody titer with respect to aggregated human αSyn, relative to control (aggregated human αSyn [1]; Example 10, modified linker, titer of AJ-p54 or AJ-p150 as control being 1 (logarithm)): 1
- Phosphorylation of human αSyn in SH-SY5Y cells to which aggregated human αSyn was added (aggregated human αSyn [2]): inhibited
- Antibody titer with respect to human αSyn (N = 4 − 6, mean ± standard deviation) (human αSyn; [4]): 4096 ± 2896
- Induction of the antibody to human αSyn (in words) (human αSyn; Example 3, mice): induced to the same extent
- Antibody titer (N = 4 − 6, mean ± standard deviation) with respect to human αSyn (human αSyn; Example 3, mice, same manner as Example 2): 1434 ± 1510
- Induction of the antibody to human αSyn (in words) (human αSyn; Example 4, balb/c mice): induced
- Antibody titer with respect to human αSyn (mean ± standard deviation) (human αSyn; [5]): 1434 ± 1510
- Antibody titer with respect to human αSyn, relative to control (human αSyn; Example 9, mice, N = 4, titer of AJ-p150 or AJ-p54 as control being 1 (logarithm)): 1
- Antibody titer with respect to human αSyn, relative to control (human αSyn; Example 10, modified linker, mice, titer of AJ-p54 or AJ-p150 as control being 1 (logarithm)): 1

Sequence: ELKLIFLHRLKRLRKRLKRKXKKTQLGKND (ELKLIFLHRLKRLRKRLKRK[Ahx]KKTQLGKND) [AJ-p273]
- Antibody titer with respect to aggregated human αSyn (N = 4 − 6, mean ± standard deviation) (aggregated human αSyn [1]; [4]): 704 ± 896
- Induction of the antibody to aggregated human αSyn in cynomolgus monkeys (aggregated human αSyn [3]): not induced
- Antibody titer with respect to human αSyn (N = 4 − 6, mean ± standard deviation) (human αSyn; [4]): 3328 ± 3278
